Results on ten molecules are retold here after ChEMBL document CHEMBL1201862, “PubChem BioAssay data set” (2004).

Some test systems named below: ACHN; HCT-15; KM12; LOX IMVI; M14; MDA-MB-435; NCI-H522; OVCAR-3; OVCAR-4; RXF 393; SF-295; SF-539; SK-MEL-2; SN12C; SNB-19; SW-620; TK-10; U-251; UACC-62; UO-31.
Holding throughout (experiment): DTP human tumour cell line panel, 48 h

SMILES strings stand for the structures.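 Briefly, cells in 96-well plates were exposed to five compound concentrations for 48 h, and endpoints were estimated by linear interpolation. GI50 marks 50% less growth.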 The source made the active and inactive calls. No stated cut-off is given here; in the data, active = GI50 up to about 1.1 µM and inactive = higher.

For `C/C(=N\N=C(/S)N1CC2CCC(CC2)C1)c1cccc[n+]1[O-]`, the GI50 in the experiment with ACHN is 5 µM (inactive); with HCT-15, 1.8 µM; in the experiment with KM12, 4.56 µM (inactive); in the experiment on LOX IMVI it was 5.02 µM (inactive); in the experiment with M14 it was 6.15 µM (inactive); with MDA-MB-435, 28.5 µM (inactive). For the same molecule, the GI50 is 11.4 µM (inactive) in the experiment on NCI-H522; 0.044 µM (active) in the experiment with OVCAR-3; 2.46 µM (inactive) in the experiment on OVCAR-4; 13.7 µM (inactive) in the experiment on RXF 393; 4.43 µM (inactive) in the experiment on SF-295; 5.85 µM (inactive) with SF-539. Also, the GI50 in the experiment on SK-MEL-2 was 15.3 µM (inactive); with SN12C, 7.67 µM (inactive); with SNB-19 it was 9.08 µM (inactive); with SW-620, 4.35 µM (inactive); in the experiment on TK-10, 20.4 µM (inactive); in the experiment on U-251, 6.28 µM (inactive). For the same molecule, the GI50 in the experiment on UACC-62 was 7.31 µM (inactive); in the experiment with UO-31 it was 3.12 µM (inactive).
Regarding `CCOC1SC(SC)=NN1C(=O)C(OC(C)=O)C(OC(C)=O)C(OC(C)=O)C(OC(C)=O)C(=O)N1N=C(SC)SC1OCC` (stereo not given), the GI50 in the experiment with ACHN is > 100 µM (inactive); with HCT-15, above 100 µM; with KM12, > 100 µM (inactive); with LOX IMVI, > 100 µM (inactive); with M14 it was > 100 µM (inactive); with MDA-MB-435, > 100 µM (inactive). Moreover, the GI50 with NCI-H522 is > 100 µM (inactive); with OVCAR-3, > 100 µM (inactive); with OVCAR-4 it was 78.5 µM (inactive); in the experiment with RXF 393 it was 75.2 µM (inactive); in the experiment with SF-295, > 100 µM (inactive); with SF-539, 69.7 µM (inactive). In addition, the GI50 in the experiment on SK-MEL-2 is > 100 µM (inactive); with SN12C, > 100 µM (inactive); with SNB-19, > 100 µM (inactive); in the experiment with SW-620 it was > 100 µM (inactive); with TK-10, > 100 µM (inactive); in the experiment with U-251 it was 86.3 µM (inactive). Further, the GI50 with UACC-62 and with UO-31 was > 100 µM (inactive) in each case.
Take `COc1cc2c(cc1OC)-c1c(oc3cc(OC4OC(CO)C(O)C(O)C4O)c(OC)cc3c1=O)C(O)O2` (stereo not given): the GI50 was > 100 µM (inactive) in the experiment on ACHN; above 100 µM in the experiment on HCT-15; > 100 µM (inactive) with KM12; > 100 µM (inactive) in the experiment on LOX IMVI; > 100 µM (inactive) with M14; > 100 µM (inactive) in the experiment on MDA-MB-435. Also, the GI50 with NCI-H522, with OVCAR-3, with OVCAR-4, in the experiment with RXF 393, in the experiment on SF-295 and in the experiment with SF-539 was > 100 µM (inactive) throughout. The GI50 in the experiment on SK-MEL-2, with SN12C, in the experiment on SNB-19, with SW-620, in the experiment on TK-10 and in the experiment on U-251 was > 100 µM (inactive) throughout. Moreover, the GI50 with UACC-62 and in the experiment with UO-31 was > 100 µM (inactive) in each case.
On to `COc1ccc2c(=O)c3cc([N+](=O)[O-])ccc3n(C)c2c1`, for which the GI50 was > 100 µM (inactive) with ACHN; above 100 µM with HCT-15; > 100 µM (inactive) with KM12; > 100 µM (inactive) in the experiment on LOX IMVI; > 100 µM (inactive) in the experiment on M14; > 100 µM (inactive) with MDA-MB-435. Also, the GI50 with NCI-H522, in the experiment on OVCAR-3, in the experiment on OVCAR-4, in the experiment with RXF 393, in the experiment on SF-295 and in the experiment on SF-539 was > 100 µM (inactive) each time. For the same molecule, the GI50 in the experiment on SK-MEL-2, in the experiment with SN12C, in the experiment on SNB-19, in the experiment with SW-620, in the experiment on TK-10 and with U-251 was > 100 µM (inactive) in each case. Moreover, the GI50 in the experiment with UACC-62 and in the experiment with UO-31 was > 100 µM (inactive) throughout.
Regarding `O=C1c2ccccc2C(=O)c2c1ccc1nc3c(nc21)-c1c2ccccc2cc2cccc-3c12`, the GI50 in the experiment on ACHN is 16.1 µM (inactive); in the experiment with HCT-15 it was 29.4 µM; in the experiment on KM12 it was 8.36 µM (inactive); in the experiment with LOX IMVI, 19.9 µM (inactive); in the experiment on M14, 32.4 µM (inactive); with MDA-MB-435, 18.6 µM (inactive). In addition, the GI50 in the experiment on NCI-H522 is 27.2 µM (inactive); in the experiment on OVCAR-3 it was 43.8 µM (inactive); in the experiment on OVCAR-4, > 70.1 µM (inactive); with RXF 393 it was 39.4 µM (inactive); in the experiment with SF-295, 21.4 µM (inactive); in the experiment with SF-539, 21.4 µM (inactive). In addition, the GI50 is 68.9 µM (inactive) in the experiment on SK-MEL-2; 35.8 µM (inactive) in the experiment on SN12C; 38.4 µM (inactive) in the experiment with SNB-19; > 63.1 µM (inactive) with SW-620; 52.4 µM (inactive) in the experiment on TK-10; 31.3 µM (inactive) in the experiment with U-251. The GI50 is 26.5 µM (inactive) with UACC-62 and 17.6 µM (inactive) with UO-31.
Turning to `Nc1ncnc2c1ncn2[C@@H]1O[C@H](COP(=O)(O)OP(=O)(O)OC[C@H]2O[C@@H](OCCCO)[C@H](O)[C@@H]2O)[C@@H](O)[C@H]1O`, the GI50 with ACHN is > 100 µM (inactive); in the experiment on HCT-15 it was 60 µM; in the experiment on KM12 it was 63.5 µM (inactive); in the experiment on LOX IMVI, 56.8 µM (inactive); with M14 it was > 100 µM (inactive); in the experiment with MDA-MB-435, > 100 µM (inactive). Further, the GI50 in the experiment with NCI-H522, in the experiment on OVCAR-3, in the experiment with OVCAR-4, in the experiment on RXF 393, in the experiment on SF-295 and in the experiment on SF-539 was > 100 µM (inactive) in each case. The GI50 with SK-MEL-2 was > 100 µM (inactive); in the experiment with SN12C, > 100 µM (inactive); with SNB-19, 76.6 µM (inactive); with SW-620 it was > 100 µM (inactive); with TK-10, > 100 µM (inactive); in the experiment on U-251 it was > 100 µM (inactive). For the same molecule, the GI50 in the experiment on UACC-62 and in the experiment with UO-31 was > 100 µM (inactive) throughout.
As for `COc1cc2c(cc1OCCCC(=O)Nc1cc(C(=O)Nc3cc(C(=O)NCCCN(C)C)n(C)n3)n(C)n1)N=CC1CCCN1C2=O` (stereo not given), the GI50 in the experiment with ACHN was 16.2 µM (inactive); in the experiment with HCT-15, 16.1 µM; with KM12 it was 34.9 µM (inactive); with LOX IMVI, 20.7 µM (inactive); in the experiment on M14, 16 µM (inactive); with MDA-MB-435 it was 16.8 µM (inactive). In addition, the GI50 in the experiment on NCI-H522 was 7 µM (inactive); with OVCAR-3, 18.5 µM (inactive); in the experiment with OVCAR-4, 13.3 µM (inactive); in the experiment with RXF 393 it was 16.7 µM (inactive); with SF-295, 36.1 µM (inactive); in the experiment on SF-539, 21.7 µM (inactive). Also, the GI50 was 16.4 µM (inactive) with SK-MEL-2; 16.1 µM (inactive) in the experiment with SN12C; 12.6 µM (inactive) with SNB-19; 15.2 µM (inactive) in the experiment with SW-620; 19.7 µM (inactive) with TK-10; 17 µM (inactive) with U-251. The GI50 is 20.1 µM (inactive) in the experiment on UACC-62 and 16.7 µM (inactive) with UO-31.
As to `C/C(=N\NC(=S)N1CCN(c2ccccn2)CC1)c1ccccn1`, the GI50 in the experiment with ACHN is < 0.0239 µM (active); with HCT-15, 0.0219 µM; with KM12, 0.129 µM (active); in the experiment on LOX IMVI it was 0.0403 µM (active); in the experiment with M14 it was 0.0431 µM (active); in the experiment with MDA-MB-435, 0.111 µM (active). Also, the concentration for 50% growth inhibition (GI50) in the experiment with NCI-H522 is 0.0818 µM (active); with OVCAR-3, 0.00327 µM (active); in the experiment with OVCAR-4 it was 0.331 µM (active); with RXF 393 it was 0.4 µM (active); in the experiment on SF-295, 0.00532 µM (active); in the experiment with SF-539, 0.397 µM (active). Besides, the GI50 was 1.25 µM (inactive) with SK-MEL-2; 0.0206 µM (active) in the experiment on SN12C; 0.27 µM (active) in the experiment on SNB-19; 0.017 µM (active) in the experiment on SW-620; 0.871 µM (active) in the experiment with TK-10; 0.00356 µM (active) in the experiment on U-251. Further, the GI50 with UACC-62 was 0.00646 µM (active); in the experiment with UO-31, 0.998 µM (active).
As to `O=C1C(C(c2ccc([N+](=O)[O-])cc2)N2CCOCC2)=C(O)C(c2ccccc2)N1c1ccccc1` (stereo not given), the GI50 is > 10 µM (inactive) in the experiment on ACHN; above 10 µM with HCT-15; > 10 µM (inactive) in the experiment with KM12; > 10 µM (inactive) with LOX IMVI; > 10 µM (inactive) with M14; > 10 µM (inactive) in the experiment with MDA-MB-435. For the same molecule, the GI50 in the experiment with NCI-H522, in the experiment on OVCAR-3, in the experiment on OVCAR-4, in the experiment with RXF 393, in the experiment with SF-295 and with SF-539 was > 10 µM (inactive) in each case. Further, the GI50 in the experiment with SK-MEL-2, in the experiment with SN12C, in the experiment on SNB-19, in the experiment on SW-620, in the experiment with TK-10 and in the experiment on U-251 was > 10 µM (inactive) throughout. For the same molecule, the GI50 with UACC-62 and in the experiment on UO-31 was > 10 µM (inactive) throughout.
On to `CC(=O)OCC12C(OC(C)=O)C(=O)C3C(OC(C)=O)C14OC3(C)COC(=O)c1cccnc1C(C)C(C)C(=O)OC(C(OC(C)=O)C2OC(C)=O)C4(C)O` (stereo not given), for which the GI50 was > 100 µM (inactive) in the experiment with ACHN; above 100 µM in the experiment with HCT-15; > 100 µM (inactive) in the experiment on KM12; > 100 µM (inactive) in the experiment with LOX IMVI; > 100 µM (inactive) with M14; > 100 µM (inactive) in the experiment with MDA-MB-435. Also, the GI50 in the experiment with NCI-H522, in the experiment on OVCAR-3, in the experiment with OVCAR-4, in the experiment with RXF 393, in the experiment on SF-295 and in the experiment on SF-539 was > 100 µM (inactive) throughout. Besides, the GI50 in the experiment on SK-MEL-2, in the experiment on SN12C, in the experiment with SNB-19, with SW-620, in the experiment on TK-10 and with U-251 was > 100 µM (inactive) in each case. Besides, the GI50 with UACC-62 and with UO-31 was > 100 µM (inactive) throughout.
